This assay concerns INS-1E cytokine-induced caspase-3/7, Caspase-Glo luminescence, 48 h. As to the kind of experiment: suppression of cytokine-driven beta-cell apoptosis – INS-1E rat cells, luminescence, orthogonal assay for beta-cell apoptosis protection project, dose response (AID 463206).

Broadly, the AC50 is the concentration at which the activity in the assay is half-maximal.

Where “and” joins values, the source holds several entries; their conditions need not be identical. Identical values can stand only once. Calls of active or inactive are those of the source.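 How the source made its calls: active means caspase luminescence falls with dose and the half-maximal concentration AC50 from the fitted curve is at or below a set limit; inconclusive means flat fit at 30 to 70% signal loss, or invalid fit; inactive means AC50 above the limit, or signal rises instead.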 Where only a bound is given, the exact number is not on record here.

Consider `CC(C)(C)C(=O)NC(=S)NNC(=O)c1ccc(-c2ccccc2)cc1`, for which the AC50 was > 26 µM (inactive).

With `N#Cc1c(N2CCCCC2)nc(N2CCCCC2)c2c1CCN(Cc1ccccc1)C2`, the AC50 was > 26 µM (inactive).

Regarding `COCCNc1nc2c(c(=O)n(C)c(=O)n2C)n1Cc1cccc(C(F)(F)F)c1`, the AC50 was > 26 µM (inactive).

Regarding `O=[N+]([O-])c1cccnc1N/N=C/c1ccccc1O`, the AC50 is > 26 µM (inactive).

`Cc1ccc2c(c1)S/C(=C/c1ccc[n+](CCO)c1)N2C`: the AC50 was > 26 µM (inactive).

Turning to `Cc1ccc(NNC(=O)c2ccno2)cc1Cl`, the AC50 is > 26 µM (inactive).

On to `O=C(Nc1ccc(Cl)c(Cl)c1)N1CCSC1c1ccco1` (configuration not stated), for which the AC50 is > 26 µM (inactive).

Consider `Cc1ccccc1CNc1ccc(C(CC(N)=O)NC(=O)c2ccc(Br)cc2)cc1[N+](=O)[O-]` (configuration not stated), for which the AC50 is > 26 µM (inactive).

Consider `NC(=O)c1ccc(N2CCN(S(=O)(=O)c3cccs3)CC2)c([N+](=O)[O-])c1`, for which the AC50 was > 26 µM (inactive).

For `C(=N\Nc1nncc2ccccc12)/c1ccccn1`, the AC50 was > 26 µM (inactive).

Consider `O=C(NCc1ccncc1)c1cc(-c2ccc(Cl)cc2)oc1C(F)(F)F`, for which the AC50 was > 12 µM (inactive).

With `CN(CC1CCCO1)S(=O)(=O)c1ccc(C(=O)Nc2nc(-c3ccccn3)cs2)cc1` (configuration not stated), the AC50 was > 26 µM (inactive).

As to `CCCCCCCCn1c(=O)c(C(=O)OC)c(N)c2ccccc21`, the AC50 is > 26 µM (inactive).

Take `Cc1cc2nc(NCCCO)n(CC(=O)c3cc(C(C)(C)C)c(O)c(C(C)(C)C)c3)c2cc1C`: the AC50 is > 26 µM (inactive).

Turning to `CCCC(=O)NC(c1ccccc1)c1ccc2cccnc2c1O` (configuration not stated), the AC50 was > 26 µM (inactive).

Take `Cc1cc(/C=N/n2cnnc2)c(C)n1-c1ccc(OCc2ccccc2F)cc1`: the AC50 is > 26 µM (inactive).

In the case of `Cc1ccc2ccc3ccc(C)nc3c2n1`, the AC50 is > 26 µM (inactive).

Take `Oc1[nH]c(N=C2N=c3ccccc3=N2)c2ccccc12`: the AC50 was > 26 µM (inactive).

With `COc1ccccc1C(=O)Nc1nc2ccccc2[nH]1`, the AC50 was > 26 µM (inactive).

In the case of `C/C(=N\NC(=O)c1cc(Br)ccc1O)c1ccccn1`, the AC50 was > 26 µM (inactive).

Take `CCS(=O)(=O)c1ncc(Cl)c(C(=O)Nc2ccc(S(=O)(=O)N3CCCC(C)C3)cc2)n1` (configuration not stated): the AC50 was > 26 µM (inactive).

`CC(=O)Cc1cc(O)c2ccccc2c1OC(=O)c1ccc(Br)cc1`: the AC50 was > 26 µM (inactive).

Take `C=CC(C)(C)c1c(O)c(CC=C(C)C)c(O)c2c(=O)c3ccc(O)c(O)c3oc12`: the AC50 was > 26 µM (inactive).

In the case of `COc1ccc(-c2sc3ccccc3c2-c2ccc(OCCN3CCCCC3)cc2)cc1`, the AC50 is > 26 µM (inactive).

As to `Cn1c(=O)[nH]c(=O)c2c1nc(N1CCN(C(c3ccccc3)c3ccccc3)CC1)n2CCO`, the AC50 was > 26 µM (inactive).

On to `COc1ccc(-n2c(=S)[nH]c3cc(C(=O)Nc4ccccc4OC)ccc3c2=O)cc1`, for which the AC50 was > 26 µM (inactive).

For the compound `O=C(Nc1ccc(Cl)cc1)Nc1ccc(N2CCCC2)c(S(=O)(=O)Nc2ccccc2Cl)c1`, the AC50 is > 26 µM (inactive).

Regarding `O=C(NC(NC(=S)Nc1ccccc1)C(Cl)(Cl)Cl)c1cccc(Cl)c1` (configuration not stated), the AC50 is > 26 µM (inactive).

Turning to `O=C1CSC(c2cccnc2)N1CC1CC1` (configuration not stated), the AC50 was > 26 µM (inactive).

Take `Cc1[nH]n(-c2ccc(Br)cc2)c(=O)c1/C=N/NC(=O)c1ccccc1`: the AC50 was > 26 µM (inactive).

Regarding `CCOC(=O)[C@@H]1[C@H]2COc3cc(OC)ccc3[C@H]2N2C(=O)N(c3ccc(C(F)(F)F)cc3)C(=O)[C@]12C`, the AC50 is > 26 µM (inactive).

Take `CC[C@@H](C(=O)[C@@H](C)[C@@H](O)[C@H](C)CCc1ccc(C)c(O)c1C(=O)O)[C@H]1O[C@](CC)([C@H]2CC[C@](O)(CC)[C@H](C)O2)C[C@@H]1C`: the AC50 is > 12 µM (inactive).

Consider `Cc1cccc(NC2=C/C(=N/S(=O)(=O)c3cccs3)c3ccccc3C2=O)c1`, for which the AC50 is > 26 µM (inactive).

Regarding `Oc1c(Br)cc(Br)cc1/C=N/Nc1ccc(Cl)nn1`, the AC50 is > 26 µM (inactive).

Consider `O=C(Nc1ccc(S(=O)(=O)N2CCOCC2)cc1)c1ccc([N+](=O)[O-])s1`, for which the AC50 is > 26 µM (inactive).

Turning to `O=C(/C=C/c1cccc(Cl)c1)c1ccc([N+](=O)[O-])o1`, the AC50 is > 26 µM (inactive).

Turning to `COc1cc(C(=O)Oc2ccccc2/C=N/NC(=O)c2ccc(C)c(Cl)c2)cc(OC)c1OC`, the AC50 was > 26 µM (inactive).

`CCN1CCN(Cc2ccc(NC(=O)c3ccc(C)c(NC(=O)C(=O)c4c[nH]c5ccccc45)c3)cc2C(F)(F)F)CC1`: the AC50 is > 12 µM (inactive) and > 26 µM (inactive).

As for `NNc1nc(-c2ccccc2)cc(-c2ccccc2O)n1`, the AC50 was > 26 µM (inactive).

Take `CC(=O)Oc1c(Cl)cc(N(C(C)=O)S(=O)(=O)c2ccccc2)c2ccccc12`: the AC50 is > 26 µM (inactive).

Regarding `COc1ccc(CN2CCN(CCSc3ccc(C)cc3)CC2)c(OC)c1OC`, the AC50 was > 26 µM (inactive).

As for `Cc1ccc(NC(=O)c2ccccc2NS(=O)(=O)c2ccc(Cl)s2)cc1`, the AC50 was > 26 µM (inactive).

For `O=C(C#Cc1ccccc1)Nc1cccc(F)c1`, the AC50 is > 26 µM (inactive).

For the compound `CC1=NOC(=O)/C1=C/c1ccc(-c2ccc(Cl)cc2)o1`, the AC50 is > 26 µM (inactive).

Consider `O=C(CC1C(=O)NCCN1Cc1ccc(-c2ccccc2)cc1)NC1CCC1` (configuration not stated), for which the AC50 is > 26 µM (inactive).

In the case of `O=C(NNc1ccnc2cc(Cl)ccc12)C1CCCCC1`, the AC50 was > 26 µM (inactive).

Regarding `Cc1ccc(-c2c[n+]3c(n2-c2ccccc2)CCC3)cc1`, the AC50 is > 26 µM (inactive).

On to `C#CCOCCOCCOCCNc1nc(N2CCN(C(=O)CCCCCCCCCCNC(=O)[C@H]([C@@H](C)CC)n3cc(CCCCCN)nn3)CC2)nc(N2CCN(C(=O)CCCCCCCCCCNC(=O)[C@@H]([C@H](C)O)n3cc(C)nn3)CC2)n1`, for which the AC50 was > 26 µM (inactive).

As to `Fc1ccc(Oc2nc(-c3ccccn3)nc3ccccc23)cc1`, the AC50 is > 26 µM (inactive).

As to `C=CCc1cccc(/C=N/NC(=O)c2ccc3nc[nH]c3c2)c1O`, the AC50 is > 26 µM (inactive).

`COc1ccc(C(=O)NCC(=O)N/N=C/c2ccc([N+](=O)[O-])s2)cc1OC`: the AC50 was > 26 µM (inactive).

With `Cc1[nH]n(C2=NCCS2)c(=O)c1N=Nc1cccc(C(F)(F)F)c1`, the AC50 was > 26 µM (inactive).

Turning to `C#CCN(C(=O)c1cc(COc2cccc(C(F)(F)F)c2)on1)C1CCCCC1`, the AC50 was > 26 µM (inactive).

As to `O=[N+]([O-])c1ccc(-c2nc(C(Cl)Cl)c3ccccc3n2)cc1`, the AC50 is 0.62 µM.

Take `NS(=O)(=O)c1ccc(N=Nc2ccc(O)c3ncccc23)cc1`: the AC50 is > 26 µM (inactive).

On to `CCc1ccc(Nc2n[n+](-c3ccccc3)c(-c3c(Cl)cccc3Cl)s2)cc1`, for which the AC50 was > 26 µM (inactive).

Consider `C=CCn1c(SCC(=O)c2[nH]c(C)c(C(=O)OCC)c2C)nc2scc(-c3ccc(OC)c(OC)c3)c2c1=O`, for which the AC50 is > 12 µM (inactive).

As to `Cc1ccc(Sc2cc(C)nc(-c3ccccn3)n2)cc1`, the AC50 was > 12 µM (inactive).

With `O=C(Nc1cc(Sc2ccccn2)cc([N+](=O)[O-])c1)c1cccc(F)c1`, the AC50 was > 26 µM (inactive).

`O=C1N/C(=N/N=C/c2ccccc2O)SC1Cc1ccc(F)cc1` (configuration not stated): the AC50 is > 26 µM (inactive).

For the compound `Cc1ccc(O)c(N=Nc2nccs2)c1`, the AC50 is > 26 µM (inactive).

Turning to `COc1ccc(C)cc1Nc1n[n+](-c2ccccc2)c(-c2c(Cl)cccc2Cl)s1`, the AC50 is > 26 µM (inactive).

Regarding `Cc1ccc(C)c(S(=O)(=O)N2CCN(Cc3ccc(O)c4ncccc34)CC2)c1`, the AC50 was > 26 µM (inactive).

On to `Oc1[nH]c2ccc(Br)cc2c1N=NC(=S)N1CCOCC1`, for which the AC50 was > 26 µM (inactive).

Take `N#CC1=C(N)Oc2c(ccc3cccnc23)C1c1ccccc1` (configuration not stated): the AC50 is > 12 µM (inactive).

With `Cc1cccnc1CCNCc1c(C(=O)N2C[C@@H](C)O[C@@H](C)C2)nc2ccc(Cl)cn12`, the AC50 was > 26 µM (inactive).

As to `CC(C)COC(=O)c1ccc2c(c1O)C(=O)c1ccccc1C2=O`, the AC50 is > 26 µM (inactive).

Regarding `C/C(=N\NC(=O)c1ccc(C)cc1)c1c(C)[nH]n(-c2ccccc2)c1=O`, the AC50 is > 26 µM (inactive).

`O=C(NCCOCCOCCNC(=O)c1cccnc1)c1cccnc1`: the AC50 is > 26 µM (inactive).

`CC(=O)c1cccc(NS(=O)(=O)c2ccc(N/C=C/C(=O)c3ccc(F)cc3)cc2)c1`: the AC50 is > 26 µM (inactive).

For the compound `C/C(=N\NC(=O)c1cc(C2CC2)nc2ccccc12)c1ccc(O)cc1O`, the AC50 is > 26 µM (inactive).

Turning to `CC(=O)Nc1ccc(Nc2c3ccccc3nc3ccccc23)cc1`, the half-maximal activity concentration (AC50) is 8.76 µM.

For the compound `CCC(CO)Oc1cc(NCc2ccc(C)c(C)c2)c2ncn(C(C)C)c2c1` (configuration not stated), the AC50 is > 26 µM (inactive).

`CCCCC(CC)CN1C(=O)/C(=C/c2ccncc2)SC1=S` (configuration not stated): the AC50 is > 26 µM (inactive).

Turning to `Cc1ccc(-c2c[n+](Cc3ccc(Cl)cc3)c3n2CCC3)cc1`, the AC50 is > 26 µM (inactive).

On to `COc1cnc(-c2ccccn2)nc1NC(C)C`, for which the AC50 is > 12 µM (inactive).

`Cc1ccccc1NC(=O)/C=C/c1ccc([N+](=O)[O-])s1`: the AC50 was > 26 µM (inactive).

As to `Cc1sc2ncnc(NCC(C)(C)N3CCOCC3)c2c1C`, the AC50 was > 26 µM (inactive).

As for `C#CCOCCOCCOCCNc1nc(N2CCN(C(=O)CCCCCCCCCCNC(=O)Cn3cc(C[C@@H](C)O)nn3)CC2)nc(N2CCN(C(=O)CCCCCCCCCCNC(=O)[C@@H]([C@H](C)CC)n3cc(CCCCCN)nn3)CC2)n1`, the AC50 is > 26 µM (inactive).

On to `CC(C)n1cnc2c(NCc3ccccc3)cc(N[C@H](C)CO)cc21`, for which the AC50 was > 26 µM (inactive).

For the compound `O=C(NCc1cccnc1)/C(=C\c1ccc(-c2ccc(Cl)c(Cl)c2)o1)S(=O)(=O)c1ccccc1`, the AC50 is > 26 µM (inactive).

Turning to `O=C(c1ccco1)c1coc2c1cc(O)c1ccccc12`, the AC50 is > 26 µM (inactive).

The record behind these values is PubChem BioAssay AID463206 (Broad Institute, 2010).
